{"source": "patent US12030929B2", "about": "“Fusobacterium nucleatum amyloid-like FadA for diagnosis and treatment of Fn-mediated pathogenesis” (The Trustees of Columbia University in the City of New York, priority 2021, dated 2024)", "key": {"[1]": {"test_system": "Fn binding to human CRC cells DLD1", "test": "Cell culture attachment assay, DLD1", "format": "cell-based", "details": "bacteria washed twice with 1 mg/ml Congo Red, MOI 50:1"}, "[2]": {"test_system": "Fn 12230", "test": "Effects of Congo Red on Fn viability (OD600 and CFU)", "format": "cell-based, Fusobacterium nucleatum", "details": "incubation 48 or 72 hrs", "protocol": "FIG. 10A-10B. 10A. Schematic illustration of preparation of detergent-resistant bacterial pellets and its use as scaffold for biofilm growth. 10B. Effects of Congo Red on Fn viability. Fn 12230 was incubated in PBS (top row), 10 mg/ml Congo Red (10 CR), or 50 mg/ml Congo Red (50 CR) for 48 hrs (left panel) or 72 hrs (right panel), followed by measurement of OD600 (OD) and viable counts (CFU)."}, "[3]": {"test_system": "HCT116 xenograft tumors", "test": "CRC xenograft model", "format": "in vivo", "details": "Fn 12230 washed in 1 mg/ml Congo Red, injected into tumors; IHC one week later; nude mice", "protocol": "FIG. 5A-5D. Amyloid-like FadA mediates colonization in CRC and promotes tumor growth in vivo. 5A. Analysis of Fn colonization in mouse xenograft tumors by IHC. An inoculum of 5×10^6 HCT116 cells was injected subcutaneously and bilaterally into the nude mice. Once the tumors became visible (after 3-4 days), approximately 5×10^6 CFU of Fn 12230 washed in PBS or 1 mg/ml Congo Red (CR) were injected into the tumors. The tumors were extracted one week later, and the formalin-fixed and embedded (FFPE) tissues were stained with mAb 7H7. Note the brown stains in tumor injected with PBS-washed tumor, but not in CR-washed tumor. 5B. Effects of secreted amyloid-like FadA on tumor growth. HCT116 cells were injected into the nude mice as described above, followed by injection of 5×10^6 CFU of Fn 12230 (Fn, n=7), lam (n=3) or US1 (ΔfadA, n=4). The tumor volumes were measured immediately before bacteria injection (Day 0, designated as 100%), and at 3 days after injection (Day 3). The horizontal lines represent averages of tumor volumes (left panel). The individual tumors are shown (right panel). **p<0.01, ***p<0.001 (t-test). 5C. […] The tumor volumes were measured on Day 0 and Day 5 as described above. […] The tumor volumes were measured described above. […]\nCRC xenograft model. […] The tumor length and width were measured using calipers and tumor volumes were calculated using the following formula: Volume=(width)2×length/2. […]"}}, "data": [{"molecule": "Nc1c(/N=N/c2ccc(-c3ccc(/N=N/c4cc(S(=O)(=O)O)c5ccccc5c4N)cc3)cc2)cc(S(=O)(=O)O)c2ccccc12", "note": "[Congo Red]", "values": [{"measurement": "effect on Fn binding to DLD1", "setting": "[1]; log phase", "value": "little or no effect on binding"}, {"measurement": "reduction of Fn binding to DLD1", "setting": "[1]; stationary phase", "value": "~5", "unit": "fold"}, {"measurement": "viability of Fn", "setting": "[2]", "value": "without affecting the viability of Fn"}, {"measurement": "Fn colonization in xenograft tumors", "setting": "[3]", "value": "significantly inhibited Fn colonization in xenograft tumors"}]}]}
